Key:
Assay type in all cases: in vivo
[1] = test system: Amaranthus retoflexus (AMARE); assay: B2 Post-Emergence Efficacy—Test 2; conditions: post-emergence application, 250 g/ha, evaluated after 13 days (Test 2)
Description: (§1) B2 Post-Emergence Efficacy—Test 2 Seeds of a variety of test species are sown in standard soil in pots:—Solanum nigrum (SOLNI), Amaranthus retoflexus (AMARE), Setaria faberi (SETFA), Echinochloa crus-galli (ECHCG), Ipomoea hederacea (IPOHE), Lolium perenne (LOLPE). After 8 days cultivation (post-emergence) under controlled conditions in a glasshouse (at 24/16° C., day/night; 14 hours light; 65% humidity), the plants are sprayed with an aqueous spray solution derived from the formulation of the technical active ingredient in acetone/water (50:50) solution containing 0.5% Tween 20 (polyoxyethylene sorbitan monolaurate, CAS RN 9005-64-5). Compounds are applied at 250 g/ha. The test plants are then grown in a glasshouse under controlled conditions in a glasshouse (at 24/16° C., day/night; 14 hours light; 65% humidity) and watered twice daily. After 13 days, the test is evaluated for the percentage damage caused to the plant. The biological activities are assessed on a five point scale (5=80-100%; 4=60-79%; 3=40-59%; 2=20-39%; 1=0-19%). A blank value in the table is indicative that the compound was not tested on that species.

[2] = test system: Echinochloa crus-galli (ECHCG); assay: B2 Post-Emergence Efficacy—Test 2; conditions: post-emergence application, 250 g/ha, evaluated after 13 days (Test 2)
Description: as §1

[3] = test system: Ipomoea hederacea (IPOHE); assay: B2 Post-Emergence Efficacy—Test 2; conditions: post-emergence application, 250 g/ha, evaluated after 13 days (Test 2)
Description: as §1

Lolium perenne (LOLPE) [4] = assay: B2 Post-Emergence Efficacy—Test 2; conditions: post-emergence application, 250 g/ha, evaluated after 13 days (Test 2)
Description: as §1

Setaria faberi (SETFA) [5] = assay: B2 Post-Emergence Efficacy—Test 2; conditions: post-emergence application, 250 g/ha, evaluated after 13 days (Test 2)
Description: as §1

Solanum nigrum (SOLNI) [6] = assay: B2 Post-Emergence Efficacy—Test 2; conditions: post-emergence application, 250 g/ha, evaluated after 13 days (Test 2)
Description: as §1

[7] = test system: Amaranthus retoflexus (AMARE); assay: B5 Pre-Emergence Efficacy—Test 2; conditions: 250 g/ha, evaluated after 13 days
Description: (§2) B5 Pre-Emergence Efficacy—Test 2 Seeds of a variety of test species were sown in standard soil in pots: Solanum nigrum (SOLNI), Amaranthus retoflexus (AMARE), Setaria faberi (SETFA), Echinochloa crus-galli (ECHCG), Ipomoea hederacea (IPOHE), Lolium perenne (LOLPE). After cultivation for one day (pre-emergence) under controlled conditions in a glasshouse (at 24/16° C., day/night; 14 hours light; 65% humidity), the plants were sprayed with an aqueous spray solution derived from the formulation of the technical active ingredient in acetone/water (50:50) solution containing 0.5% Tween 20 (polyoxyethelyene sorbitan monolaurate, CAS RN 9005-64-5). Compounds are applied at 250 g/ha. The test plants were then grown in a glasshouse under controlled conditions (at 24/16° C., day/night; 14 hours light; 65% humidity) and watered twice daily. After 13 days, the test is evaluated for the percentage damage caused to the plant. The biological activities are assessed on a five point scale (5=80-100%; 4=60-79%; 3=40-59%; 2=20-39%; 1=0-19%). A blank value in the table is indicative that the compound was not tested on that species.

Solanum nigrum (SOLNI) [8] = assay: B5 Pre-Emergence Efficacy—Test 2; conditions: 250 g/ha, evaluated after 13 days
Description: as §2

[9] = test system: Echinochloa crus-galli (ECHCG); assay: B5 Pre-Emergence Efficacy—Test 2; set-up: key: 5-point scale: 5=80-100%, 4=60-79%, 3=40-59%, 2=20-39%, 1=0-19% damage; conditions: 250 g/ha, evaluated after 13 days
Description: as §2

[10] = test system: Ipomoea hederacea (IPOHE); assay: B5 Pre-Emergence Efficacy—Test 2; set-up: key: 5-point scale: 5=80-100%, 4=60-79%, 3=40-59%, 2=20-39%, 1=0-19% damage; conditions: 250 g/ha, evaluated after 13 days
Description: as §2

Lolium perenne (LOLPE) [11] = assay: B5 Pre-Emergence Efficacy—Test 2; set-up: key: 5-point scale: 5=80-100%, 4=60-79%, 3=40-59%, 2=20-39%, 1=0-19% damage; conditions: 250 g/ha, evaluated after 13 days
Description: as §2

Setaria faberi (SETFA) [12] = assay: B5 Pre-Emergence Efficacy—Test 2; set-up: key: 5-point scale: 5=80-100%, 4=60-79%, 3=40-59%, 2=20-39%, 1=0-19% damage; conditions: 250 g/ha, evaluated after 13 days
Description: as §2

## Cc1nn(C)c(=O)c(-c2c(F)ccc(Cl)c2CCc2ccccc2C#N)c1O [Compound A-1.029]
[1]
  percentage damage caused to the plant, five point scale, AMARE: 4 (4=60-79%)
[2]
  percentage damage caused to the plant, five point scale, ECHCG: 2 (2=20-39%)
[3]
  percentage damage caused to the plant, five point scale, IPOHE: 5 (5=80-100%)
Lolium perenne (LOLPE) [4]
  percentage damage caused to the plant, five point scale, LOLPE: 4 (4=60-79%)
Setaria faberi (SETFA) [5]
  percentage damage caused to the plant, five point scale, SETFA: 4 (4=60-79%)
Solanum nigrum (SOLNI) [6]
  percentage damage caused to the plant, five point scale, SOLNI: 5 (5=80-100%)
[7]
  Control of weed species after pre-emergence application, AMARE (percentage damage, five point scale): 3 (3=40-59%)
Solanum nigrum (SOLNI) [8]
  Control of weed species after pre-emergence application, SOLNI (percentage damage, five point scale): 5 (5=80-100%)
[9]
  Control of weed species after pre-emergence application, ECHCG (percentage damage, five point scale): 5 (5=80-100%)
[10]
  Control of weed species after pre-emergence application, IPOHE (percentage damage, five point scale): 1 (1=0-19%)
Lolium perenne (LOLPE) [11]
  Control of weed species after pre-emergence application, LOLPE (percentage damage, five point scale): 2 (2=20-39%)
Setaria faberi (SETFA) [12]
  Control of weed species after pre-emergence application, SETFA (percentage damage, five point scale): 1 (1=0-19%)

## CSc1ccc(CCc2c(Cl)ccc(F)c2-c2c(O)c(C)nn(C)c2=O)cc1 [Compound A-1.039, 4-[3-chloro-6-fluoro-2-[2-(4-methylsulfanylphenyl)ethyl]-phenyl]-5-hydroxy-2,6-dimethyl-pyridazin-3-one]
[1]
  percentage damage caused to the plant, five point scale, AMARE: 5 (5=80-100%)
[2]
  percentage damage caused to the plant, five point scale, ECHCG: 5 (5=80-100%)
[3]
  percentage damage caused to the plant, five point scale, IPOHE: 5 (5=80-100%)
Lolium perenne (LOLPE) [4]
  percentage damage caused to the plant, five point scale, LOLPE: 5 (5=80-100%)
Setaria faberi (SETFA) [5]
  percentage damage caused to the plant, five point scale, SETFA: 5 (5=80-100%)
Solanum nigrum (SOLNI) [6]
  percentage damage caused to the plant, five point scale, SOLNI: 5 (5=80-100%)
[7]
  Control of weed species after pre-emergence application, AMARE (percentage damage, five point scale): 5 (5=80-100%)
Solanum nigrum (SOLNI) [8]
  Control of weed species after pre-emergence application, SOLNI (percentage damage, five point scale): 5 (5=80-100%)
[9]
  Control of weed species after pre-emergence application, ECHCG (percentage damage, five point scale): 5 (5=80-100%)
[10]
  Control of weed species after pre-emergence application, IPOHE (percentage damage, five point scale): 3 (3=40-59%)
Lolium perenne (LOLPE) [11]
  Control of weed species after pre-emergence application, LOLPE (percentage damage, five point scale): 4 (4=60-79%)
Setaria faberi (SETFA) [12]
  Control of weed species after pre-emergence application, SETFA (percentage damage, five point scale): 5 (5=80-100%)

## Cc1nn(C)c(=O)c(-c2c(F)ccc(Cl)c2CCc2ccc(C#N)cc2)c1OC(=O)C(C)C [Compound A-3.036, [5-[3-Chloro-2-[2-(4-cyanophenyl)ethyl]-6-fluoro-phenyl]-1,3-dimethyl-6-oxo-pyridazin-4-yl] 2-methylpropanoate]
[1]
  percentage damage caused to the plant, five point scale, AMARE: 5 (5=80-100%)
[2]
  percentage damage caused to the plant, five point scale, ECHCG: 4 (4=60-79%)
[3]
  percentage damage caused to the plant, five point scale, IPOHE: 5 (5=80-100%)
Lolium perenne (LOLPE) [4]
  percentage damage caused to the plant, five point scale, LOLPE: 4 (4=60-79%)
Setaria faberi (SETFA) [5]
  percentage damage caused to the plant, five point scale, SETFA: 4 (4=60-79%)
Solanum nigrum (SOLNI) [6]
  percentage damage caused to the plant, five point scale, SOLNI: 5 (5=80-100%)
[7]
  Control of weed species after pre-emergence application, AMARE (percentage damage, five point scale): 5 (5=80-100%)
Solanum nigrum (SOLNI) [8]
  Control of weed species after pre-emergence application, SOLNI (percentage damage, five point scale): 5 (5=80-100%)
[9]
  Control of weed species after pre-emergence application, ECHCG (percentage damage, five point scale): 5 (5=80-100%)
[10]
  Control of weed species after pre-emergence application, IPOHE (percentage damage, five point scale): 5 (5=80-100%)
Lolium perenne (LOLPE) [11]
  Control of weed species after pre-emergence application, LOLPE (percentage damage, five point scale): 5 (5=80-100%)
Setaria faberi (SETFA) [12]
  Control of weed species after pre-emergence application, SETFA (percentage damage, five point scale): 5 (5=80-100%)

## Cc1nn(C)c(=O)c(-c2c(F)ccc(Cl)c2CCc2ccc(C(=O)O)cc2)c1O [Compound A-1.040]
[1]
  percentage damage caused to the plant, five point scale, AMARE: 3 (3=40-59%)
[2]
  percentage damage caused to the plant, five point scale, ECHCG: 0
[3]
  percentage damage caused to the plant, five point scale, IPOHE: 0
Lolium perenne (LOLPE) [4]
  percentage damage caused to the plant, five point scale, LOLPE: 0
Setaria faberi (SETFA) [5]
  percentage damage caused to the plant, five point scale, SETFA: 0
Solanum nigrum (SOLNI) [6]
  percentage damage caused to the plant, five point scale, SOLNI: 3 (3=40-59%)
[7]
  Control of weed species after pre-emergence application, AMARE (percentage damage, five point scale): 0
Solanum nigrum (SOLNI) [8]
  Control of weed species after pre-emergence application, SOLNI (percentage damage, five point scale): 0
[9]
  Control of weed species after pre-emergence application, ECHCG (percentage damage, five point scale): 0
[10]
  Control of weed species after pre-emergence application, IPOHE (percentage damage, five point scale): 0
Lolium perenne (LOLPE) [11]
  Control of weed species after pre-emergence application, LOLPE (percentage damage, five point scale): 0
Setaria faberi (SETFA) [12]
  Control of weed species after pre-emergence application, SETFA (percentage damage, five point scale): 0

## Cc1nn(C)c(=O)c(-c2c(F)ccc(Cl)c2CCc2ccc(C3CC3)cc2)c1O [Compound A-1.038]
[1]
  percentage damage caused to the plant, five point scale, AMARE: 5 (5=80-100%)
[2]
  percentage damage caused to the plant, five point scale, ECHCG: 5 (5=80-100%)
[3]
  percentage damage caused to the plant, five point scale, IPOHE: 5 (5=80-100%)
Lolium perenne (LOLPE) [4]
  percentage damage caused to the plant, five point scale, LOLPE: 5 (5=80-100%)
Setaria faberi (SETFA) [5]
  percentage damage caused to the plant, five point scale, SETFA: 5 (5=80-100%)
Solanum nigrum (SOLNI) [6]
  percentage damage caused to the plant, five point scale, SOLNI: 5 (5=80-100%)
[7]
  Control of weed species after pre-emergence application, AMARE (percentage damage, five point scale): 5 (5=80-100%)
Solanum nigrum (SOLNI) [8]
  Control of weed species after pre-emergence application, SOLNI (percentage damage, five point scale): 5 (5=80-100%)
[9]
  Control of weed species after pre-emergence application, ECHCG (percentage damage, five point scale): 5 (5=80-100%)
[10]
  Control of weed species after pre-emergence application, IPOHE (percentage damage, five point scale): 2 (2=20-39%)
Lolium perenne (LOLPE) [11]
  Control of weed species after pre-emergence application, LOLPE (percentage damage, five point scale): 5 (5=80-100%)
Setaria faberi (SETFA) [12]
  Control of weed species after pre-emergence application, SETFA (percentage damage, five point scale): 0

## CC(=O)Nc1ccc(CCc2c(Cl)ccc(F)c2-c2c(O)c(C)nn(C)c2=O)cc1 [Compound A-1.024]
[1]
  percentage damage caused to the plant, five point scale, AMARE: 5 (5=80-100%)
[2]
  percentage damage caused to the plant, five point scale, ECHCG: 4 (4=60-79%)
[3]
  percentage damage caused to the plant, five point scale, IPOHE: 5 (5=80-100%)
Lolium perenne (LOLPE) [4]
  percentage damage caused to the plant, five point scale, LOLPE: 5 (5=80-100%)
Setaria faberi (SETFA) [5]
  percentage damage caused to the plant, five point scale, SETFA: 5 (5=80-100%)
Solanum nigrum (SOLNI) [6]
  percentage damage caused to the plant, five point scale, SOLNI: 5 (5=80-100%)
[7]
  Control of weed species after pre-emergence application, AMARE (percentage damage, five point scale): 5 (5=80-100%)
Solanum nigrum (SOLNI) [8]
  Control of weed species after pre-emergence application, SOLNI (percentage damage, five point scale): 5 (5=80-100%)
[9]
  Control of weed species after pre-emergence application, ECHCG (percentage damage, five point scale): 2 (2=20-39%)
[10]
  Control of weed species after pre-emergence application, IPOHE (percentage damage, five point scale): 0
Lolium perenne (LOLPE) [11]
  Control of weed species after pre-emergence application, LOLPE (percentage damage, five point scale): 4 (4=60-79%)
Setaria faberi (SETFA) [12]
  Control of weed species after pre-emergence application, SETFA (percentage damage, five point scale): 5 (5=80-100%)

Source: patent publication US12540120B2, “Herbicidal compounds” (SYNGENTA CROP PROTECTION AG, priority 2019, dated 2026)
